Experiment in all cases: inhibition of tumour cell growth, NCI panel, 48 h
Assay [1] concerns HL-60(TB) leukemia.
In assay [2] the test system is HOP-62 NSCLC.
Assay [3] concerns HT29 colon.
For assay [4], the system named is M14 melanoma.
For assay [5], the system named is MCF7 breast.
Assay [6] concerns NCI-H23 lung.
Assay [7] concerns NCI/ADR-RES ovarian.
Assay [8] concerns OVCAR-3 ovarian.
For assay [9], the system named is OVCAR-5 ovarian.
The test system of assay [10] is OVCAR-8 ovarian.
The subject of assay [11] is RPMI-8226 leukemia.
Assay [12] relates to SF-295 CNS.
Assay [13] relates to SK-MEL-2 melanoma.
Assay [14] has as its system SK-MEL-28 melanoma.
Assay [15] concerns SN12C renal.
Assay [16] concerns SNB-19 CNS.
Assay [17] concerns TK-10 renal.
Assay [18] relates to U251 CNS.
For assay [19], the system named is UACC-62 melanoma.
For assay [20], the system named is HCT-15 colon.

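Exposure lasted 48 hours, with cells grown in 96-well plates and compounds tested at five concentrations. TGI: concentration producing complete growth inhibition.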

Take `CN1Cc2cc(O)c(O)cc2C(O)C1` (stereo not drawn): the TGI in assay [1], in assay [2], in assay [3], in assay [4], in [5] and in [6] was above 100 µM each time. Further, the TGI in [7], in assay [8], in [9], in assay [10], in assay [11] and in assay [12] was above 100 µM in each case. The TGI in assay [13], in assay [14], in [15], in assay [16], in assay [17] and in assay [18] was above 100 µM throughout. This molecule came in with a TGI in assay [19] above 100 µM.
Regarding `COc1cc2c(cc1Oc1c(Oc3c(O)c(OC)cc4c3C(CC(C)C)N(C)CC4)c(OC)cc3c1C(CC(C)C)N(C)CC3)C(CC(C)C)N(C)CC2` (stereo not drawn), the TGI in [20] stood at 12.9 µM; in [1], 8.16 µM; in assay [2], 3.76 µM; in [3], 5.61 µM; in assay [5], 8.3 µM; in [6] it was 4.91 µM. The TGI in assay [7] turned out to be 14.1 µM; in [8], 11.4 µM; in assay [9], 17.7 µM; in [10] it was 8.24 µM; in [11], 10.4 µM; in assay [12], 5.04 µM. Besides, the TGI in assay [13] is 3.67 µM; in assay [14], 13.6 µM; in assay [15], 3.53 µM; in assay [16] it was 2.18 µM; in assay [18], 6.22 µM; in [19] it was 4.02 µM.
In the case of `CCOc1ccc(C(C)c2cc3c(cc2OC)OCO3)cc1` (stereo not drawn), the TGI in assay [20] was above 100 µM; in assay [2], 23.1 µM; in assay [3], 12.4 µM; in assay [4], 45 µM; in assay [6], above 100 µM; in assay [8] it was 27.7 µM. The TGI is above 100 µM in assay [9]; 9.59 µM in assay [10]; 22.2 µM in assay [11]; 40.7 µM in assay [15]; above 100 µM in assay [16]; above 100 µM in assay [17]. The TGI in assay [18] and in assay [19] was above 100 µM throughout.
In the case of `COc1cc2cc(C(=O)N3CC(CCl)c4ccc(N(C)C)cc43)[nH]c2c(OC)c1OC` (stereo not drawn), the TGI in assay [20] was above 59.9 µM; in [1] it was 0.292 µM; in [2], 0.265 µM; in assay [4], 0.237 µM; in assay [5] it was 0.604 µM; in assay [6], 0.118 µM. Also, the TGI in [7] was determined as 0.272 µM; in assay [8], 0.363 µM; in assay [9], 0.259 µM; in assay [12], 0.726 µM; in assay [13], 0.128 µM; in assay [14] it was 0.121 µM. For the same molecule, the TGI in [15] was 0.531 µM; in assay [16], 8.21 µM; in assay [17], above 100 µM; in [18] it was 4.05 µM; in assay [19] it was 0.524 µM.
